Results as given in publication PMC5595280, “Cytotoxicity and anti-tumor effects of new ruthenium complexes on triple negative breast cancer cells” (PLoS ONE, 2017).

What was measured:
MDA-MB-231 cells [1] = assay: Boyden chamber migration assay; format: cell-based, human; conditions: 5, 10 and 20 μM, 22 h
Protocol: Cell migration was also assessed in a chemotactic assay using 24 well Boyden chambers (BD Biosciences) as described earlier. MDA-MB-231 (0.5 x 10^5/350 μL) cells, incubated or not with complex (4) 5, 10 and 20 μM were seeded on the upper chamber in a DMEM incomplete medium (without FBS). In the lower chamber DMEM medium supplemented with 10% FBS was added. Cells were allowed to migrate for 22 h at 37°C and 5% CO2 in a humidified environment. Then, cells that remained in the upper chamber were removed using a cotton swab. Cells that migrated to the other side of the upper chamber membrane were fixed with methanol and stained with 1% toluidine blue. Migrated cells were quantified by manual counting and inhibition ratio was expressed as % of control.

[2] = test system: Bax, Caspase-3 and Bcl-2 gene expression in MDA-MB-231 cells; assay: RT-qPCR of apoptosis related genes; format: cell-based, human; conditions: 40 μM, 3 h
Protocol: MDA-MB-231 cells (1.0 x 10^6/plate) were incubated for 3 h with (20 and 40 μM) or without (control) the complex (4) in Petri dishes (6 cm) at 37°C in a humidified incubator with 5% CO2. Total RNA was extracted using Trizol reagent (Invitrogen). cDNAs were synthesized using Enhanced Avian RT First Strand Synthesis kit (Sigma-Aldrich, St. Louis, MO, USA). A Rotor-Gene 6000 real-time rotary analyzer (Corbett Life Science, Australia) was used to amplify both target and internal control templates (1 cycle at 95°C for 5 min and 40 amplification cycles at 95°C for 30 sec, 55°C for 30sec and 72°C for 45sec). In brief, 1 μL of reverse transcribed product template, 5 μL of SYBR Green JumpStart Taq ReadyMix (Sigma-Aldrich) and the gene-specific primer pairs at a final concentration of 500 nmol l^-1 for each primer, made 10 μL of reaction system. Primers used in the assays were: Caspase-3 (Forward: 5’GTG CTA CAA TGC CCC TGG AT3’; Reverse: 5’GCCCATTCATTTATTGCTTTC C3’), Bax (Forward: 5’CAT CCA GGA TCG AGC AGG3’; Reverse: 5’CGA TGC GCT TGA GAC ACT C3), Bcl-2 (Forward: 5’GGT GGG AGG GAG GAA GAA T3’; Reverse: 5’GCA GAG GCA TCA CAT CGA C3’) and β-actin (Forward: 5’GACGGCCAGGTCATCACCATT G3’; Reverse: 5’AGCACTGTGTTGGCGTACAGG 3’). Bax primers (NM_001291428.1) and Bcl-2 (NM_000633.2) were designed with Gene Runner available at http://generunner.net/ (version5.0.63 Beta), except for the primer Caspase-3 (NM_004346.3). For each gene, all samples were amplified simultaneously in duplicate in one assay run. The internal calibrator used as a basis to standardize the results of expression was the control group ΔCts average. Calibration was determined by ΔΔCt = ΔCt (sample) − ΔCt (calibrator). Gene expression was assessed by relative quantification, using the formula 2-ΔΔCt and β-actin as internal control. Data represent three assays in duplicate. A blank with water, primers and SYBR Green instead of template sample was performed.

MDA-MB-231 cells [3] = assay: Phalloidin staining of F-actin cytoskeleton; format: cell-based, human; conditions: 30 min
Protocol: To examine the effects of complex (4) on the F-actin cytoskeleton organization in MDA-MB-231 cells, Alexa Fluor® 488 Phalloidin was used to stain the F-actin fibers. MDA-MB-231 cells (5x10^4 cells/100 μL) were plated in 96-well plates and maintained at 37°C in a humidified incubator with 5% CO2 for 24 h. In the next day, cells were treated with 10, 20, 40 μM of complex (4) and incubated for 30 min. Next, cells were washed with PBS, fixed with 3.7% paraformaldehyde in PBS for 30 min and then permeabilized with 0.1% Triton-X 100 in PBS for 5min at room temperature. Blocking was performed with 2% BSA for 30 min, followed by the addition of Alexa Fluor 488 Phalloidin for 20 min. Cells were then stained with DAPI for nuclear labeling for 10min and finally washed again with PBS for three times. Images were obtained with an automated microscope ImageXpress® Micro XLS System (Molecular Devices).

[4] = Water-octanol partition coefficient (stir-flask method); format: physicochemical; conditions: 24 h shaking, 37°C
Protocol: The water-octanol partition coefficients were determined by use of the stir-flask method. The complex was added in a mixture with equal volumes of water and octanol shaking by 24 h at 100 rpm and 37°C, samples were centrifuged for 5min at 300rpm, the organic and aqueous phases were separated. The concentration of drug in each phase was measured spectrophotometrically in order to determine values of P = [drug] (in octanol)/[drug] (in water).

MDA-MB-231 cells [5] = assay: Apoptosis by flow cytometry (PE-Annexin-V / 7AAD); format: cell-based, human; conditions: MDA-MB-231, 20 μM, 3 h
Protocol: (§1) MDA-MB-231 and MCF-10A cells (1.0 x 10^5/mL) were seeded in 12-well plates in a complete DMEM medium and incubated for 24 h. After this period the medium was removed and cells were incubated or not (control) with different concentrations of complex (4), for 3 h at 37°C and 5% CO2. After treatment the plate was centrifuged at 2000 rpm for 5 min at 4°C, washed with PBS and resuspended in 400 μL of binding buffer from the kit. Cells were incubated with 10 μL of 7AAD and 10 μL of PE-Annexin-V for 15 min protected from light. After the incubation period the supernatant was removed and 400 μL of binding buffer were added to the wells. Cells were then removed from the wells with the aid of a scraper and transferred to flow cytometry tubes. The reading was performed in Accuri C6 flow cytometer (BD Biosciences) and fluorescence emitted by each dye was quantified using CellQuest software (BD Biosciences).

MCF-10A cells = assay: Apoptosis by flow cytometry (PE-Annexin-V / 7AAD); format: cell-based, human; conditions: 20 μM, 3 h
Protocol: as §1

MDA-MB-231 cells [6] = assay: Matrigel transwell invasion assay; format: cell-based, human; conditions: 20 μM, 22 h
Protocol: The effect of different concentrations of complex (4) 5, 10 μM and 20 μM on MDA-MB-231 tumor cell invasiveness was determined by the ability to transmigrate through a layer of matrigel in a transwell chamber (BD Biosciences) as described earlier. Wells were rehydrated with the addition of 1mL of warm (37°C) incomplete culture medium for 2 h. MDA-MB-231 cells (0.5 x 10^5/350 μL) were loaded on the top of matrigel in a DMEM incomplete medium. DMEM medium supplemented with 10% FBS was placed on the bottom chamber of the transwell units. Twenty-two hours later, cells that remained in the upper chamber were removed using a cotton swab and invasive cells were fixed with methanol and stained with 1% toluidine blue. The invaded cells were quantified by manual counting and inhibition ratio was expressed as % of control.

CC(=O)[O-].F[P-](F)(F)(F)(F)F.[Ru+2].c1ccc(-c2ccccn2)nc1.c1ccc(P(CCCCP(c2ccccc2)c2ccccc2)c2ccccc2)cc1 [Complex (4), [Ru(CH3CO2)(dppb)(bipy)]PF6]
effect on cell migration (Boyden chamber) (MDA-MB-231 cells [1]): inhibited MDA-MB-231 cell migration in a concentration dependent fashion
Bax gene expression [2]: upregulated
Bcl-2 gene expression [2]: did not affect
Caspase-3 gene expression [2]: upregulated
effect on actin cytoskeleton structure (MDA-MB-231 cells [3]; 10, 20 and 40 μM): strongly modified the structure of the actin cytoskeleton
effect on cytoskeleton density (MDA-MB-231 cells [3]; 20 and 40 μM): decrease in cytoskeleton density
Log P [4]: 0.77 ± 0.03
cells suffering apoptosis (MDA-MB-231 cells [5]): 74.4%
cells suffering apoptosis (MCF-10A cells): 14.9%
inhibition of invasion compared to control (MDA-MB-231 cells [6]): approximately 80%
